Source: patent publication US20240166645A1, “PYRIDOPYRIMIDINONE DERIVATIVE, PREPARATION METHOD THEREFOR, AND USE THEREOF” (Wuhan Humanwell Innovative Drug Research and Development …, priority 2021, published 2024)

Assays:
KRAS G12C-SOS1 = KRAS G12C-SOS1 (Homo sapiens (Human), UniProt Q07889); assay: Inhibition test on KRAS G12C-SOS1 activity (Transcreener GDP-FI); format: biochemical
Experimental: The compound to be tested was prepared into a 10 mM stock solution with DMSO, and serially diluted using 1× test buffer (modified Tris buffer). The resulting compound solution was transferred to a 384-well plate, and the final content of DMSO was 0.25%, and an additional DMSO well without compound was set up as a high signal control.
1× test buffer (modified Tris buffer) was prepared. […] 5 μL of SOS1 and 5 μL of GTP were transferred to the 384-well plate, respectively.
GDP detection reagent was prepared using the test buffer. 10 μL of the detection reagent solution was transferred to the 384-well plate and incubated at room temperature for 2 h. After incubation, the plate was read on a multifunctional microplate reader (SpectraMax Paradigm) with an excitation wavelength of 580 nm and an emission wavelength of 620 nm. The fluorescence signal was read, and the inhibition rate was calculated as:
inhibition percentage=(high signal control−sample signal)/(high signal control−low signal control)×100, and IC50 values were calculated using Graphpad 5 software.

[1] = test system: ERK phosphorylation level in DLD-1 cells; assay: Inhibition of ERK phosphorylation level in DLD-1 cells (intracellular western blot); format: cell-based; conditions: Homo sapiens
Experimental: Intracellular western blot quantitative analysis was used to detect the inhibitory level of compounds on ERK phosphorylation in DLD-1 cells.
DLD-1 cells (ATCC, CCL-221) were seeded in a T75 culture flask at 2.5×10^6 cells/flask and cultured in a RPMI 1640 medium containing 10% FBS for 2 days. On day 3, the cells were seeded on a 384-well plate, and cultured overnight at 37° C., 5% CO2. After overnight culture, the plate was added with serially diluted compounds (the final content of DMSO was 0.5%), the negative group was added with DMSO, and incubated in a 37° C., 5% CO2 incubator.
The cells were fixed, washed once with PBS, treated to disrupt membranes, and blocked at room temperature for 1 h. The blocking solution was removed. The plate was added with primary antibody (CST, Cat. No. #4370S), and incubated overnight at 4° C. The plate was washed 3 times with PBST (PBS solution added with 0.05% Tween-20) and soaked for 2 min each time. The plate was added with secondary antibody (LI-COR, Cat. No. 926-32211) and incubated at room temperature in the dark. The plate was washed 3 times with PBST and soaked for 2 min each time. The plate was centrifuged at 1000 rpm for 1 min, scanned on a two-color infrared laser imaging system (Odyssey® CLX) to read the signal.
Relative signal=800-channel signal values/700-channel signal values.
Relative expression level of ERK phosphorylation=(test compound−control compound I)/(DMSO group−control compound I)
IC50 values were calculated using Graphpad 5 software.

[2] = Human liver microsome stability test; format: in vitro ADME; conditions: human liver microsomes; for Remaining percentage (%) of compound after incubation for 30 min: 37° C.; for half-life at 1 µM: human
Experimental: The human liver microsome stability test was performed by incubating the compound and human liver microsomes in vitro. First, the compound to be tested was prepared into a 10 mM stock solution in DMSO solvent, and then the compound was diluted to 0.5 mM with acetonitrile. Human liver microsomes (Corning) were diluted with PBS into a microsome/buffer solution, and the solution was used to dilute 0.5 mM compound into a working solution, in which the concentration of the compound was 1.5 μM, and the concentration of human liver microsomes was 0.75 mg/mL. A deep-well plate was taken, 30 μL of the working solution was added per well, and then 15 μL of pre-heated 6 mM NADPH solution was added thereto to initiate a reaction, and the reaction was incubated at 37° C. At 0, 5, 15, 30 and 45 min of the incubation, 135 μL of acetonitrile was added to the corresponding wells to terminate the reaction. After the reaction was terminated with acetonitrile at the last time point of 45 min, the deep-well plate was vortexed and vibrated for 10 min (600 rpm/min), and then centrifuged for 15 min. After centrifugation, the supernatant was collected, and added with purified water in a ratio of 1:1 to perform LC-MS/MS detection. A ratio of a peak area of compound to a peak area of internal standard at each time point was obtained, and the peak area ratios of the compound at 5, 15, 30 and 45 min were compared with the peak area ratio at 0 min to calculate the remaining percentage of the compound at each time point. T1/2 was calculated by using GraphPad 5 software.

[3] = Plasma protein binding by equilibrium dialysis, mouse plasma; format: in vitro ADME; conditions: 37° C., read-out: Free fraction in plasma, Mouse (%)
Experimental: Plasma protein binding rate of compounds was detected by equilibrium dialysis (HTDialysis, HTD 96b). The compound was prepared into a […] stock solution with DMSO, and then 25-fold diluted with 0.05 M sodium phosphate buffer as a working solution. A blank 96-well plate was taken and preloaded with 380 μL of plasma per well. The plasma was then added with the working solution at 20 μL/well and mixed well, with the compound at a final concentration of 1 μM, containing 0.2% DMSO per well.
100 μL of 0.05 M sodium phosphate buffer was added to the reception-side of each dialysis chamber (HTD 96b), and then 100 μL of plasma containing the compound was added to the supply-side. The dialysis chamber was covered with a plastic lid, shaken and incubated at 37° C. for 5 h.
After incubation, 25 μL of samples were taken from each of the supply-side and the reception-side of the dialysis chamber and placed in the blank 96-well plate. An equal volume of plasma was added to each of the supply-side samples while an equal volume of 0.05 M sodium phosphate buffer was added to each of the reception-side samples and mixed well. The 96-well plate was added with an acetonitrile solution containing internal standard at 200 μL per well, vortexed and shaken at 600 rpm for 10 min, and centrifuged at 5594 g for 15 min (Thermo Multifuge×3R). 50 μL of the supernatant was then transferred to a new 96-well plate, and the samples were mixed with 50 μL of ultra-pure water for LC-MS/MS analysis.
Plasma protein binding rate and free fraction were calculated using the following formulas: % binding rate=100×([supply-side concentration]5h−[reception-side concentration]5h)/[supply-side concentration]5h. % free fraction=100−% binding rate.

[4] = Pharmacokinetic test in mice; format: in vivo; conditions: mouse, plasma; male ICR mice, oral gavage, 10 mg/kg
Experimental: Male ICR mice (20 to 25 g) were used and fasted overnight. Three mice were taken and orally administered by gavage (10 mg/kg). Blood was collected before the administration, and at 15 min, 30 min, 1 h, 2 h, 4 h, 8 h and 24 h after the administration. 6,800 g of the blood samples were centrifuged at 2 to 8° C. for 6 min, and plasma was collected and stored at −80° C. The plasma at each time point was taken and added with an acetonitrile solution containing internal standard in 3 to 5 times the amount, vortexed and mixed for 1 min, and centrifuged at 13,000 rpm/min at 4° C. for 10 min. The supernatant was collected, added with water in 3 times the amount, and mixed. An appropriate amount of the mixture was taken for LC-MS/MS analysis. The main pharmacokinetic parameters were analyzed using WinNonlin 7.0 software with non-compartmental model.

Sequence of KRAS G12C-SOS1 (Q07889 564-1049 limits assumed): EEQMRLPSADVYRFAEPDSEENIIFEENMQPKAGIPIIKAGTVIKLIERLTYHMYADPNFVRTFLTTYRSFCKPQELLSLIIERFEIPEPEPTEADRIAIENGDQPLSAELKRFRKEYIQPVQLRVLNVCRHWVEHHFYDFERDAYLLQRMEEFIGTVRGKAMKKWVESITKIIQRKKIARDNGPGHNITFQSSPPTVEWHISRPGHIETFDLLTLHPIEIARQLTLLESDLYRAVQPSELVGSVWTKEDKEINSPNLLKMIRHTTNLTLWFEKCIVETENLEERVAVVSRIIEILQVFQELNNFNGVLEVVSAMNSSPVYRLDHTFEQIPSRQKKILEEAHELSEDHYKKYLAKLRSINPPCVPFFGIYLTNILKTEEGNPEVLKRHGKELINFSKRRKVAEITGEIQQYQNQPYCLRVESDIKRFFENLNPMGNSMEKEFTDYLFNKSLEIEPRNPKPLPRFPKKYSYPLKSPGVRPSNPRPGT

For `Cc1nc(N[C@H](C)c2cccc(S(=O)(=O)C(F)F)c2C)c2cn(C3(CF)CC3)c(=O)cc2n1` [Compound I-1, (R)-4-((1-(3-((difluoromethyl)sulfonyl)-2-methylphenyl)ethyl)amino)-6-(1-(fluoromethyl)cyclopropyl)-2-methylpyrido[4,3-d]pyrimidin-7(6H)-one], the IC50 (KRAS G12C-SOS1) was 59 nM, the IC50 [1] was 102 nM and the “Remaining percentage (%) of compound after incubation for 30 min” value [2] was 76.4%. The half-life at 1 µM [2] was 1.46 h and the fraction unbound at 5 h, 1 µM [3] was 0.054.
In the case of `Cc1nc(N[C@H](C)c2cccc(S(=O)(=O)C(F)(F)F)c2F)c2cn(C3(CF)CC3)c(=O)cc2n1` [Compound I-2, (R)-4-((1-(2-fluoro-3-((trifluoromethyl)sulfonyl)phenyl)ethyl)amino)-6-(1-(fluoromethyl)cyclopropyl)-2-methylpyrido[4,3-d]pyrimidin-7(6H)-one], the IC50 (KRAS G12C-SOS1) is reported as 102 nM, the IC50 [1] is reported as 58 nM and the “Remaining percentage (%) of compound after incubation for 30 min” value [2] is reported as 96.5%. The half-life at 1 µM [2] was 7.92 h, the fraction unbound at 5 h, 1 µM [3] was 0.028 and the AUC(0-t) [4] was 517 ng·h/mL. The Cmax [4] was 256 ng/mL, the Tmax [4] was 0.5 h and the half-life [4] was 0.99 h.
